Entries after “also recorded” stand apart in the source; their conditions may differ.
How the values were obtained:
PELP1-G9a complex = target: T1, PELP1-G9a complex (Homo sapiens, UniProt Q8IZL8); test: In vitro peptide competition assay, G9a-GST on glutathione beads with purified PELP1; assay type: binding; conditions: peptides 2, 5, 10 μM, 2 hours, FIGS. 2C, 7B, 9
T1 construct: purified bacterial, full-length PELP1; host or cells: bacteria (PELP1)
Protocol: FIGS. 2A-D. (FIG. 2A) Immunoprecipitation was performed on nuclear lysates obtained from ZRPELP1 cells grown in 5% DCC for 72 hours and treated with estradiol 10^−7 M for 12 hours. PELP1 was immunoprecipitated and western blotting was performed for PELP1 and G9a expression with IgG as the control. (FIG. 2B) Various fragments of PELP1 bound to glutathione beads were incubated with recombinant G9a for 2 hours. Beads were washed, run on an SDS-PAGE gel and immunoblotted for G9a expression. GST tag alone is shown as control. (FIG. 2C) Recombinant G9a-GST was bound to glutathione beads and incubated with purified PELP1 and peptides for 2 hours. Beads were washed and run on SDS-PAGE gel. (FIG. 2D) ZR75 cells were transfected with ERE-luciferase, PELP1 and/or G9a plasmids and treated with peptide for 24 hours and estradiol 10^−7 M for 12 hours. Relative luciferase activity is shown.
FIGS. 7A-E. (FIG. 7A) Bacterial purified PELP1 was incubated with biotin-tagged peptides bound to avidin beads for one hour. Beads were washed, run on SDS-PAGE gel and probed for PELP1 expression. Input of bacterial PELP1 is shown as control. (FIG. 7B) Recombinant G9a-GST was bound to glutathione beads and incubated with purified PELP1 and peptides for 2 hours. Beads were washed and run on SDS-PAGE gel. (+2 μM, ++5 μM, +++10 μM). (FIG. 7C) ZRGST and ZRPELP1GST cells were transfected in triplicate with TopFlash β-catenin reporter and treated with TAT or PIP1 (10 μM) for 24 hours. Relative luciferase activity is shown. (FIG. 7D) MCF7vec and MCF7PELP1 cells were treated with TAT or PIP1 (10 μM) and toxicity was measured by CytoTox-Flour Cytotoxicity Assay. (FIG. 7E) ZR75 and ZR75PELP1 cells were treated with TAT, PIP1 or PIP2 for 24 hours and immunoblotted for PELP1 and ERα expression with actin as the loading control.
FIG. 9. […]
Peptides were linked to EZ-Link NHS-Biotin (Thermo Scientific) per manutfacturer's protocol. […] Beads were washed 3× with IP buffer (20 mM HEPES pH 7.9, 20% glycerol, 0.1% triton-x, 100 mM KCl), eluted with SDS-dye, and PELP1 expression was determined by western blotting. […]

[1] = system: ZR75PELP1KD and MCF7PEP1KD cells; test: MTT proliferation assay in PELP1 knockdown cells; assay type: cell-based, Human; conditions: increasing doses 10, 20, or 50 μM, day 7, FIGS. 8A-B
Protocol: FIGS. 8A-C. (FIG. 8A) ZR75PELP1KD cells were treated in triplicate with TAT or PIP1 (10, 20, or 50 μM) every 3 days and proliferation was measured by MTT assay on day 7. (FIG. 8B) MCF7PELP1KD cells were treated in triplicate with TAT or PIP1 (10, 20, or 50 μM) every 3 days and proliferation was measured by MTT assay on day 7. (FIG. 8C) MDAMB231 and MDAMB468 cells were treated in triplicate with TAT or PIP1 (10 μM) every 3 days and proliferation was measured by MTT assay on day 7. Cell proliferation rates were measured by using MTT Cell Viability Assay in 96-well plates. Model cells were seeded in 96-well plates (1×10^3 cells/well) in DMEM or RPMI medium containing 10% serum. After an overnight incubation, cells were treated with varying concentrations of the peptides for 3-7 days and growth inhibition was determined by using traditional MTT assay (Sigma) following manufacturer's instructions.

[2] = system: MCF7PELP1 Cd44high/CD22low cells; test: Mammosphere formation and self-renewal assay on FACS-sorted cells; assay type: cell-based, Human
Text: FIGS. 6A-C. (FIG. 6A) ZR75, ZR75PELP1 and ZR75PELP1KD cells were FACS sorted for CD44-APC and CD24-PE, and quantification of percentage of CD44high/CD24low cells is shown. (FIG. 6B) MCF7PELP1 cells were FACS sorted for CD44high/CD24low cells and plated in triplicate in serum free mammosphere media with TAT or PIP1 in various concentrations. Mammospheres were counted and imaged on day 7. Representative images are shown on right. (FIG. 6C) Mammospheres from previous assay (C) were dissociated and replated in serum free mammosphere media. Mammospheres were counted and imaged on day 7. Representative images are shown on right. ZR75PELP1 and MCF7PELP1 cells were FACS sorted for CD44-APC^high (Milteny Biotec) and CD24-PE^low (Milteny Biotec) cell surface markers. A single cell suspension of model cells ZR75-PELP1 were seeded in mammosphere media in a low adherent 96-well plate with TAT or PIP (10, 20 or 50 μM). Media containing peptide was added on day 4 and mammospheres were counted and imaged on day 8 (Shaw et al., 2012).

T1 sequence (Q8IZL8 2-1130, one chain of several): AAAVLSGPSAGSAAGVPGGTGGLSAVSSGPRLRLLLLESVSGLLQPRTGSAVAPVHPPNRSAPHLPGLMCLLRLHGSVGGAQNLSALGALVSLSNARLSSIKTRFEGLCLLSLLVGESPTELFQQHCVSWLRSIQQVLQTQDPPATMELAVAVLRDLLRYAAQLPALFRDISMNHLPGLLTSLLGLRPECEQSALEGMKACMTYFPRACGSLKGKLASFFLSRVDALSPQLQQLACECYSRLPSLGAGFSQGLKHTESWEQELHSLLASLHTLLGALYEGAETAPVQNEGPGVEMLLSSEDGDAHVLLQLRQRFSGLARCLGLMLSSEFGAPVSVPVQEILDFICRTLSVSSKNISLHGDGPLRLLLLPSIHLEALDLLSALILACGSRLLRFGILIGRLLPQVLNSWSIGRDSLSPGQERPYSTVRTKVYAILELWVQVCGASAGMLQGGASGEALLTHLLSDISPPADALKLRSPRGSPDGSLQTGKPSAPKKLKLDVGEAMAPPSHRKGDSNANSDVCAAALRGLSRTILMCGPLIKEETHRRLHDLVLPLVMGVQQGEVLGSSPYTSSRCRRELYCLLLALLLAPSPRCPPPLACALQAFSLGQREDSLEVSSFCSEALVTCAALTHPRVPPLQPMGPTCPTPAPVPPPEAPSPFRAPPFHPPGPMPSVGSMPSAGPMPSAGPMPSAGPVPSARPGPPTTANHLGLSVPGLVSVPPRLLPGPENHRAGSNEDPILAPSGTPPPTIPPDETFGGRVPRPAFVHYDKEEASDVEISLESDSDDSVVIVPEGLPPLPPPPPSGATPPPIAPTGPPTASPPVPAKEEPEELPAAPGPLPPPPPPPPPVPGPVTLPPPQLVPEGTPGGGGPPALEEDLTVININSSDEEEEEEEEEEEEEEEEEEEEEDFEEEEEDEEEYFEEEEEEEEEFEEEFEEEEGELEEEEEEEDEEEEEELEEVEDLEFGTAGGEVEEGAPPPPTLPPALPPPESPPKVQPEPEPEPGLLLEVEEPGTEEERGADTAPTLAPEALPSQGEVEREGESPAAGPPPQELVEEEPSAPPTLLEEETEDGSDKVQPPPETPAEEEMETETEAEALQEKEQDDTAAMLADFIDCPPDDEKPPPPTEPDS

GRKKRRQRRRGGMVEFRWSCPGRRKAKA [PIP1]
disruption of PELP1 interaction with G9a/EHMT2 (PELP1-G9a complex): disrupted by the addition of either of the two peptides in a dose-dependent manner | proliferation in PELP1 knockdown cells [1]: only saw an effect at very high concentrations | number of mammospheres ([2]; 10, 20 and 50 μM, FIG. 6B): significant decrease in the number of mammospheres | size of the mammospheres ([2]; 10, 20 and 50 μM, FIG. 6B): substantially decreased | self-renewal capacity of replated mammospheres ([2]; dissociated and replated, FIG. 6C): decreased self-renewal capacity; also recorded: inhibits the self-renewal of the cancer stem cells

Source: patent US10682388B2, “Targeting of PELP1 in cancer therapy” (THE BOARD OF REGENTS OF THE UNIVERSITY OF TEXAS SYSTEM, priority 2014, dated 2020)
